Data published in US7972785B2, “Biomarkers for liver fibrotic injury” (Industrial Technology Research Institute (ITRI), priority 2006, dated 2011).

Tested on: rat liver transcripts
Assay: Affymetrix Rat Genome U34A microarray gene expression profiling of liver of DMN-treated rats
Type: in vivo
From the text: Protocols and reagents for hybridization, washing and staining followed Affymetrix's instructions, which may be retrieved from Affymetrix's company website. Labeled cRNA was hybridized to the Affymetrix GeneChip Test 3 Array to verify the quality prior to hybridization to the Affymetrix Rat Genome U34A Array.
The microarray images were transformed into text files containing intensity information using GENECHIP® Operating Software (GCOS) developed by ® Affymetrix. The microarray datasets were then analyzed using GENESPRING® 7.2 software (Silicon Genetics, Redwood City, Calif., U.S.A.)
Over the six week time course of the experiment, the liver tissues of 12 control animals and 12 DMN-treated rats (2 rats for each time point) were selected to perform microarray experiments. Before any statistical analyses were applied to the microarray data, reproducibility was assessed. Genes were selected as present when they were assigned a present call according to the perfect match (PM)/mismatch (MM) algorithm of Affymetrix in all gene chips (28). Of the 8799 probe sets analyzed, overall expression patterns for 2385 transcripts on the chips were reported to be present (P<0.05). […] Scattered graphs of expression levels of the 2385 transcripts represented on the microarray were compared with each other. The relationship between the experimental chips in the microarray analysis was analyzed by linear regression. Overall, there was no statistical difference, with 3.2% of transcripts deviating more than 2-fold. To investigate the time course variability, the reliable signals of these 2385 probe sets between the first and sixth week of controls, were calculated. Again, there was no statistical difference, with 4.6% of transcripts deviating more than 2-fold. In contrast, a significant scatter was found between controls and DMN-treated groups, with 28.7% of transcripts deviating more than 2-fold. […]

CN(C)N=O [DMN, Dimethylnitrosamine]
transcripts deviating more than 2-fold between controls and DMN-treated groups (2385 present transcripts): 28.7%
Timp1 expression elevation in DMN treated rats (microarray): more than twenty
CD63 expression (microarray, after DMN treatment): up-regulated
